# Source: patent publication EP0712403B1, “MATRIX METALLOPROTEASE INHIBITORS” (SYNTEX (U.S.A.) INC., priority 1993, dated 1995)
# Assays:
# [1] = target: HNG (Homo sapiens, UniProt P14780); assay: In vitro metalloprotease inhibition assay (thiopeptide/DACM fluorescence); assay type: biochemical; conditions: read-out: Ki or IC50 HNG
# Experimental: (§1) Compounds of formula (I) were dissolved in DMSO and added to a cuvette containing 0.2 µg Type I or 0.03 µg Type IV collagenase in 1 ml TC buffer (20mM Tris, 5mM CaCl2, pH 7.5) (2% DMSO final concentration). The concentrations of the compounds of formula (I) were chosen such that there was at least one data point for every 20% change in activity. Enzyme and compounds were permitted to pre-incubate 3 min at 37°C. To initiate the reaction, N-(7-dimethylamino-4-methyl)coumarinyl ("DACM") (Sigma) and thiopeptide (Ac-Pro-Leu-Gly-S-"Leu"-Leu-Gly-OEt, Bachem Bioscience Inc.) were added to 20 uM each. […] Each data point is the average of duplicate experiments. At least six data points, expressed as change in fluorescence per minute versus compound concentration were analyzed using the IC50 fit in the program, Enzfitter.
# [2] = target: T1, Matr (Homo sapiens, UniProt P09237); assay: as above; assay type: biochemical; conditions: read-out: Ki or IC50 Matr
# T1 sequence (P09237 95-267): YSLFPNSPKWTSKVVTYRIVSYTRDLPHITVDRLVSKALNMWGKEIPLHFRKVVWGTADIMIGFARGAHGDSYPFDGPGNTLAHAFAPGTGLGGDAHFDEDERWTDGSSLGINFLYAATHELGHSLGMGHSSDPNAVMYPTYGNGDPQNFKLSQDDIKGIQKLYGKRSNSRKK
# [3] = tested on: cartilage explants; assay: Release of 35S-labelled glycosaminoglycans from cartilage explants; assay type: cell-based; conditions: Bos taurus; inhibition of rhIL-1-alpha induced release of 35S-labelled GAG's, bovine knee joint cartilage explants
# Experimental: This assay determines if the compounds of formula (I) inhibit the release of ^35S-labelled glycosaminoglycans (GAG's) from cartilage explants.
# Small cartilage explants (3 mm diameter) were prepared from freshly sacrificed bovine knee joints and labeled with ^35SO4. ^35S-labelled glycosaminoglycans (GAG's) are released into the culture medium in response to the addition of rhIL-1-alpha, which induces the expression of chondrocyte matrix metalloproteases (MMP's), including stromelysin and collagenase. The percent inhibition of labeled GAG's was corrected for spontaneous release in the absence of rhlL-1-alpha. Results for each group represent the mean ± the S.E.M. for five explants.
# [4] = target: T2, HFC (Homo sapiens, UniProt P03956); assay: In vitro collagenase inhibition assay (thiopeptide/DACM fluorescence); assay type: biochemical
# T2 construct: endogenous in cells; host or cells: GM0010A fibroblasts stimulated with PMA; enzyme purified from serum-free culture medium
# T2 sequence (P03956 100-469): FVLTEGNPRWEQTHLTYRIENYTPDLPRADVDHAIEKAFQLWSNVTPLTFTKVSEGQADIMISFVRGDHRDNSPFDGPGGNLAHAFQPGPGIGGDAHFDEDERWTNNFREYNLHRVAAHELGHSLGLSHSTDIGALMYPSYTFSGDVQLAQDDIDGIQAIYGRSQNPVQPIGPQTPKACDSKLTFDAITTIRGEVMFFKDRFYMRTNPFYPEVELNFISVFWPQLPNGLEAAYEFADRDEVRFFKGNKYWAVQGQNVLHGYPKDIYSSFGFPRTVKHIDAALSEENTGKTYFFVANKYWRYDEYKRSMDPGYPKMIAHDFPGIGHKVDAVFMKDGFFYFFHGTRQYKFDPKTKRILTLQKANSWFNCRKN
# Experimental: as §1
# [5] = target: HNC (Homo sapiens, UniProt P22894); assay: In vitro metalloprotease inhibition assay (thiopeptide/DACM fluorescence); assay type: biochemical
# Chain of HNC (P22894 101-467): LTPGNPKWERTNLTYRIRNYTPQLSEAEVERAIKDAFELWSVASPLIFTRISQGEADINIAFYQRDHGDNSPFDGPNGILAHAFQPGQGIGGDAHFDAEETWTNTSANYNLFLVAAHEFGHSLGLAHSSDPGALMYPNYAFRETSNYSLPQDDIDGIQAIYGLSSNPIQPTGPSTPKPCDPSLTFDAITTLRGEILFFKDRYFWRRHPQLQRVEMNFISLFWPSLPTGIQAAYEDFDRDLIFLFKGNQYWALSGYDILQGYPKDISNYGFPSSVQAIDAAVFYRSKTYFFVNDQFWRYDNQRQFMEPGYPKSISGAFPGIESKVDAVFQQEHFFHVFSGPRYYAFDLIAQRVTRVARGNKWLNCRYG
# [6] = target: SLN (Homo sapiens, UniProt P08254); assay: as above; assay type: biochemical
# Chain of SLN (P08254 100-477): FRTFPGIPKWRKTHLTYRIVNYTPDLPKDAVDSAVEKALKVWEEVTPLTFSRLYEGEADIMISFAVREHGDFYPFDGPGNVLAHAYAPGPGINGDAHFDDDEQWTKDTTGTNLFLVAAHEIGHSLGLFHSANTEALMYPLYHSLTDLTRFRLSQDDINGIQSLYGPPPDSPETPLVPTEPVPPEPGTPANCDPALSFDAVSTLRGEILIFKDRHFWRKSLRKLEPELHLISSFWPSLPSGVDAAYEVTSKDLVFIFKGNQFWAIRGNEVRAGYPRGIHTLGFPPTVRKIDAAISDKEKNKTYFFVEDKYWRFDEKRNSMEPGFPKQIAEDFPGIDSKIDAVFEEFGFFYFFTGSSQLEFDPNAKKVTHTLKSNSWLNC
# [7] = tested on: fetal rat long bones; assay: Fetal rat long bone model, bovine PTH induced bone resorption (45Ca release); assay type: cell-based; conditions: 144 h
# Source text: An in vitro fetal rat long bone model was used to study the anti-bone resorptive effect of the compounds of formula (I). Bovine PTH was used to induce bone resorption in vitro. The bone resorptive effects were expressed by the amounts of ^45Ca released from the ^45Ca pre-labelled fetal rat long bones into the culture medium. The inhibitory effect of the compounds of formula (I) against bovine PTH induced bone resorption was expressed as mean percent inhibition ± sem.
# ^45Ca-prelabelled fetal rat long bones (from forearms) were dissected and cultured in Linbro dishes at 37°C overnight BGJb medium, supplemented with 1mg/ml BSA. There were five pairs of bones in each group. The compounds of formula (I) were dissolved in ethanol first, then diluted to various concentrations and added simultaneously with Bovine PTH (1-34) at 1x10^8M on Day 1. […] The assay was terminated on Day 6 with one media change on Day 3.
# At the end of each medium change, the ^45Ca present in the culture medium was counted. The remaining bones were digested with 0.1N HCl and the ^45Ca presented in the bone digest was also counted. The results are expressed as % of the total ^45Ca released from each pair of bones. Bovine PTH at 1x10^-8M induces bone resorption to the maximum level which is set as 100% and this concentration was used as standard. […]
# Chain of HNG (P14780 107-707 limits assumed): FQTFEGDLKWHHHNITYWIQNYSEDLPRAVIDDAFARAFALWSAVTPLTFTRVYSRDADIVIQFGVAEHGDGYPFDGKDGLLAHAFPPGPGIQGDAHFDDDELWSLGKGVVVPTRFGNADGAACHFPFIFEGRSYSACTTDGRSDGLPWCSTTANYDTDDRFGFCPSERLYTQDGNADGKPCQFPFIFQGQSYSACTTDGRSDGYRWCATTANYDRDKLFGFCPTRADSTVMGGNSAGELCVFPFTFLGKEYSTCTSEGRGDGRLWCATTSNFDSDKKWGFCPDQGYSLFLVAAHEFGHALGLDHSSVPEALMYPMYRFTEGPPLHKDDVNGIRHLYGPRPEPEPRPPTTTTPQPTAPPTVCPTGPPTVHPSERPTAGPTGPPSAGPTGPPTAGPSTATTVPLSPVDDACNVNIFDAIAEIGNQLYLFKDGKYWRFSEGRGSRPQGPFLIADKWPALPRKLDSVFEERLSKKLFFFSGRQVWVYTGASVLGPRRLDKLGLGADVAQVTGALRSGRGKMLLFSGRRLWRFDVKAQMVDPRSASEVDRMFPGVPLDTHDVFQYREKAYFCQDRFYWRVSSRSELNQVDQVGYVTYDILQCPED
IC50 [2] [nM],Structure (SMILES),IC50 [1] [nM],IC50 [3] [nM],IC50 [4] [nM],IC50 [5] [nM],IC50 [6] [nM],IC50 [7] [nM]
3,"CC(C)CC(CC(=O)NO)C(=O)N[C@H]1Cc2cn(c3ccccc23)CCCCCCCNC1=O (stereo partly drawn) [Compound 2, (11S)-N-hydroxy-5-methyl-3-(10-oxo-1,9-diazatricyclo-[11.6.1.0^14,19]eicosa-13(20),14(19),15,17-tetraen-11-ylcarbamoyl)hexanamide]",0.2,40000,–,–,–,–
–,"CC(C)CC(CP(=O)(O)CSc1ccc2ccccc2n1)C(=O)N[C@H]1Cc2cn(c3ccccc23)CCCCCCNC1=O (stereo partly drawn) [Compound 4, (10S)-[4-methyl-2-(9-oxo-1,8-diazatricyclo[10.6.1.0^13,18]nonadeca-12(19),13(18),14,16-tetraen-10-ylcarbamoyl)pentyl] (quinolin-2-ylthiomethyl)phosphinic acid]",14,50000,5,4,> 800,5000
